{"source": "patent US5635495A", "about": "“Pyrimidine bisphosphonate esters and (alkoxymethylphosphinyl)alkyl phosphonic acids as anti-inflammatories” (The Upjohn Company, priority 1995, dated 1997)", "key": {"[1]": {"test_system": "mBSA-induced DTH granuloma (DTH GRA) lesion", "test": "Delayed Type Hypersensitivity Granuloma Assay (DTH GRA) model for inflammation", "type": "in vivo, mouse", "details": "for % Inhibition Dry Weight: granuloma dry weight; for % Inhibition Dry Weight / % Inhibition Wet Weight: excised after nine days; for % Inhibition Wet Weight: granuloma wet weight", "text": "Compounds of Formula 3 and a compound of Formula 2 have been tested in a Delayed Type Hypersensitivity Granuloma Assay (DTH GRA) model for inflammation. This assay is described by Dunn, C. J. et al., \"Development of a delayed-type hypersensitivity granuloma model in the mouse for the study of chronic immune-mediated inflammatory disease,\" Agents and Actions, 27, 3/4 (1989) and \"Murine Delayed-Type Hypersensitivity Granuloma,\" Int. J. Immunopharmc., 12, 8, 899-904 (1990).\nBriefly, mBSA-sensitized mice have a DTH granuloma (DTH GRA) lesion induced by subcutaneously implanting a mBSA-soaked filter which is excised after nine days. Compounds are administered to the mice to determine their effect on the lesions. The results are recorded as percent inhibition. […] Inhibition of 10 to 20% is considered to indicate anti-granuloma activity. Greater than 30% inhibition is good activity.\nThe compound of Formula 2 tested was 1-((ethoxy-methylphosphinyl))-4-(3-methyl-6-phenyl-4(3H)-pyrimidinone-2-yl)-butane phosphonic acid diethyl ester, Example 16 and the DTH GRA data obtained for this compound was 44.4%."}, "[2]": {"test_system": "calcium channel", "test": "in vitro model which identifies calcium channel blocking activity (KCl-induced calcium influx, INDO-1, human dermal fibroblasts)", "type": "cell-based", "details": "40 mM KCl, human dermal fibroblasts CRL 1445", "protocol": "These compounds were also tested in an in vitro model which identifies calcium channel blocking activity. In this test, adherent human dermal fibroblasts (CRL 1445, ATCC, Bethesda, Md.) were allowed to attach to glass cover slips placed in 6 well culture plates. Cultures were maintained in DMEM supplemented with antibiotics and 10% fetal bovine serum (FBS) until confluent.\nThe fibroblasts were washed once with Dulbecco's phosphate buffered saline to remove the culture medium and FBS. The calcium probe, INDO-1 AM ([…]) in RPMI 1640 without phenol red and supplemented with 10 mM hepes and 2 mM glutamine was added to the cells for 1 hour at 37° C. The cells were washed twice with RPMI1640 and remained in this medium until calcium measurements were obtained with the Meridian ACAS digital image microscope.\nThe cover slip with the attached fibroblasts was placed in a chamber with 1 ml of RPMI on the microscope stage, and maintained at 37° C. The cells were exposed to a laser beam set at 310 nm and fluorescent emission was measured at 485 nm and 405 nm. Baseline resting calcium levels of the fibroblasts were measured for 30 seconds after which 40 mM KCl was added to the medium in the holder. Data was collected at 40 second intervals for a total of 300 to 400 seconds. Maximal calcium influx is usually reached within 40 seconds after the addition of KCl, and begins to slowly decrease to ~50% of the maximal level. The intracellular calcium concentrations remain elevated for at least 400 seconds.\nIn order to measure the inhibitory effect of the test compounds on changes in intracellular calcium, the compound was added to the cells maintained in RPMI medium for a minimum of 20 minutes before the fibroblast membranes were depolarized with KCl as outlined above. The mean increase in intracellular calcium was then compared to control fibroblasts which had been pretreated for similar lengths of time with DMSO and exposed to KCl. A calcium standard curve was obtained on the day of the experiments in order to generate absolute intracellular calcium concentrations if needed.\nTwo known calcium channel blockers, D600 and nifedipine were also tested to compare the relative efficacies of the \"standard\" compounds with the novel diphosphonates. For instance, D600 (available from the Sigma Co., St. Louis, Mo.) inhibited calcium influx into a cell by 83 to 100% at 10^-5 molar concentration. The Control is a sub-structure of Example 9 (k) not having the bisphosphonate teralkyl ester portion."}}}
{"smiles": "CCOP(=O)(OCC)C(CNc1nc(C)cc(Oc2ccc(Cl)cc2Cl)n1)P(=O)(OCC)OCC", "note": "[(f), (2-((4-2,4-dichlorophenoxy-6-methyl-2-pyrimidinyl)amino)ethylidene)bisphosphonic acid tetraethyl ester]", "values": [{"measurement": "% Inhibition Dry Weight", "setting": "[1]; 10 mg/kg PO", "value": 39.7, "unit": "%"}, {"measurement": "% Inhibition Wet Weight", "setting": "[1]; 10 mg/kg PO", "value": 45.9, "unit": "%"}]}
{"smiles": "Cc1cc(Oc2ccc(Cl)cc2Cl)nc(N)n1", "note": "[Control, reference compound]", "values": [{"measurement": "% Inhibition Mean SD (calcium channel activity)", "setting": "[2]; 10^-5 M", "value": 12, "unit": "%"}]}
{"smiles": "Cc1cc(Oc2c(F)cccc2[N+](=O)[O-])nc(NCC(P2(=O)OCC(C)(C)CO2)P2(=O)OCC(C)(C)CO2)n1", "note": "[Ex. 17 (a), (2-((4-(2-fluoro-6-nitrophenoxy)-6-methyl-2-pyrimidinyl)amino)ethylidene)bis(2,2'-(5,5-dimethyl-2,2'-dioxide-1,3,2-dioxaphosphorphinane))]", "values": [{"measurement": "% Inhibition Dry Weight", "setting": "[1]; 10 mg/kg PO", "value": 39.0, "unit": "%"}, {"measurement": "% Inhibition Wet Weight", "setting": "[1]; 10 mg/kg PO", "value": 47.9, "unit": "%"}]}
{"smiles": "Cc1cc(Oc2ccc(F)cc2F)nc(NCC(P2(=O)OCC(C)(C)CO2)P2(=O)OCC(C)(C)CO2)n1", "note": "[Ex. 18 (b), (2-((4-(2,4-difluorophenoxy)-6-methyl-2-pyrimidinyl)amino)ethylidene)bis(2,2'-(5,5-dimethyl-2,2'-dioxide-1,3,2-dioxaphosphorphinane))]", "values": [{"measurement": "% Inhibition Dry Weight", "setting": "[1]; 10 mg/kg PO", "value": 58.3, "unit": "%"}, {"measurement": "% Inhibition Wet Weight", "setting": "[1]; 10 mg/kg PO", "value": 70.6, "unit": "%"}]}
{"smiles": "Cc1cc(Oc2ccc(Br)cc2Br)nc(NCC(P2(=O)OCC(C)(C)CO2)P2(=O)OCC(C)(C)CO2)n1", "note": "[Ex. 19 (d), (2-((4-(2-,4-dibromophenoxy)-6-methyl-2-pyrimidinyl)amino)ethylidene)bis(2,2'(5,5-dimethyl-2,2'-dioxide-1,3,2-dioxaphosphorphinane))]", "values": [{"measurement": "% Inhibition Dry Weight", "setting": "[1]; 10 mg/kg PO", "value": 25.0, "unit": "%"}, {"measurement": "% Inhibition Wet Weight", "setting": "[1]; 10 mg/kg PO", "value": 12.1, "unit": "%"}]}
{"smiles": "Cc1cc(Oc2ccc(C#N)cc2)nc(NCC(P2(=O)OCC(C)(C)CO2)P2(=O)OCC(C)(C)CO2)n1", "note": "[Ex. 20 (e), (2-((4-(4-cyanophenoxy)-6-methyl-2-pyrimidinyl)amino)ethylidene)bis(2,2'-(5,5-dimethyl-2,2'-dioxide-1,3,2-dioxaphosphorphinane))]", "values": [{"measurement": "% Inhibition Dry Weight", "setting": "[1]; 10 mg/kg PO", "value": 41.8, "unit": "%"}, {"measurement": "% Inhibition Wet Weight", "setting": "[1]; 10 mg/kg PO", "value": 27.4, "unit": "%"}]}
{"smiles": "Cc1cc(N2CCOCC2)nc(NCC(P2(=O)OCC(C)(C)CO2)P2(=O)OCC(C)(C)CO2)n1", "note": "[Ex. 21 (c), (2-((4-(4-morpholinyl)-6-methyl-2-pyrimidinyl)amino)ethylidene)bis(2,2'-(5,5-dimethyl-2,2'-dioxide-1,3,2-dioxaphosphorphinane))]", "values": [{"measurement": "% Inhibition Dry Weight", "setting": "[1]; 10 mg/kg PO", "value": 62.5, "unit": "%"}, {"measurement": "% Inhibition Wet Weight", "setting": "[1]; 10 mg/kg PO", "value": 68.6, "unit": "%"}]}
{"smiles": "CCOP(=O)(OCC)C(CNc1nc(C)cc(Oc2ccc(Cl)cc2Cl)n1)P(=O)(OCC)OCC", "note": "[Ex. 25 (k), (2-((4-(2,4-dichlorophenoxy)-6-methyl-2-pyrimidinyl)amino)ethylidene)bisphosphonic acid, tetraethyl ester]", "values": [{"measurement": "% Inhibition Dry Weight", "setting": "[1]; 100 mg/kg, administered sc", "value": 39.6, "unit": "%"}, {"measurement": "% Inhibition Wet Weight", "setting": "[1]; 100 mg/kg, administered sc", "value": 40.5, "unit": "%"}, {"measurement": "% Inhibition Mean SD (calcium channel activity)", "setting": "[2]; 10^-5 M", "value": "92 ± 5", "unit": "%"}, {"measurement": "% Inhibition Mean SD (calcium channel activity)", "setting": "[2]; 10^-6 M", "value": "75 ± 9", "unit": "%"}, {"measurement": "% Inhibition Mean SD (calcium channel activity)", "setting": "[2]; 10^-7 M", "value": "35 ± 19", "unit": "%"}]}
{"smiles": "COc1cc(C)nc(NCC(P2(=O)OCC(C)(C)CO2)P2(=O)OCC(C)(C)CO2)n1", "note": "[Ex. 26 (l), (2((4-(methyl)-6-methoxy-2-pyrimidinyl)amino)ethylidene)bis(2,2'-(5,5-dimethyl-2,2'-dioxide-1,3,2-dioxaphosphorphine))]", "values": [{"measurement": "% Inhibition Dry Weight", "setting": "[1]; 10 mg/kg PO", "value": 44.8, "unit": "%"}, {"measurement": "% Inhibition Wet Weight", "setting": "[1]; 10 mg/kg PO", "value": 41.9, "unit": "%"}]}
{"smiles": "CCOP(C)(=O)C(CCc1nc(-c2ccccc2)cc(=O)n1C)P(=O)(OCC)OCC", "note": "(stereo not drawn) [Example 16, 1-(Ethoxymethylphosphinyl)-3-(3-methyl-6-phenyl14(3H)-pyrimidinone-2-yl)-propane phosphonic acid diethyl ester]", "values": [{"measurement": "DTH GRA percent inhibition", "setting": "[1]; dose, route and wet/dry weight not given", "value": 44.4, "unit": "%"}]}
